According to patent EP2974714B1, “USE OF DERIVATIVES WITH C-O-P BONDS IN PATIENTS WITH RENAL FAILURE” (LABORATORIS SANIFIT, S.L., priority 2013, dated 2014):

Legend:
[1] = Calcium chelation by IP6 in vitro (calcium-selective electrode); assay type: physicochemical; conditions: 2.5 mM calcium in NaCl 0.15 M, pH 7.40
Protocol: Experimental: a 2.5 mM of calcium in NaCl 0.15 M, pH 7.40, was pipetted with increasing concentrations of IP6. The amount of free ionic calcium was measured potentiometrically using a calcium-selective electrode and a potentiometer.

[2] = system: tissue calcification in a chronic renal impairment model (5/6 nephrectomised rats); assay: 5/6 nephrectomy model, IP6 by i.v. bolus; assay type: in vivo, SD rats; conditions: i.v. bolus 1 or 5 mg/kg, 8 weeks
Protocol: Experimental: 48 SD rats were 5/6 nephrectomised by complete right lateral nephrectomy and 2/3 partial nephrectomy of the left kidney. 16 animals per group were treated intravenously (bolus) with 2 ml/kg saline, 1 mg/kg IP6 or 5 mg/kg IP6. The animals received a phosphate-rich diet (1% Ca, 1.2% P) containing 20% lactose. After 8 weeks the aorta, heart and remaining 1/3 kidney were collected, and the tissue calcium content determined.

[3] = Administration of IP6 via the dialysis system (dialysability, calcium chelation in blood); assay type: in vitro ADME, human
Protocol: Experimental: 1 litre of human blood obtained from patients undergoing therapeutic phlebotomy was introduced into a recipient forming a closed dialysis circuit to simulate a real dialysis. Two experiments were performed (administration pre- and post-dialyser, both in bypass and dialysis mode), administering IP6 to human blood for 20 minutes when outside the recipient (which simulated the animal or human body) and circulating via the dialysis circuit. The recipient containing 1 litre of whole blood at a controlled temperature of 37°C is connected to the dialysis apparatus to form a closed circuit. The dialysis apparatus will be connected for 1 hour (dialysis fluid flow of 500 ml/min and blood flow of 350 ml/min). Blood samples are collected at different times to determine the IP6 and ionic calcium levels.

cardiovascular function [4] = assay: Cardiovascular function after bolus-type intravenous administration in conscious dogs by telemetry; assay type: in vivo
Protocol: Experimental: 4 male dogs, 2 per dose, were injected with 10, 15 and 30 mg/kg. Two washout days were introduced between the different doses. The ECGs were recorded telemetrically. Blood ionic calcium concentrations were determined on different days to the ECG measurements.

[5] = Release of IP6 from the HAP surface; assay type: binding; conditions: after incubation for 2 days in IP6-free solution
Protocol: Experimental: 130 mg HAP was incubated in triplicate with 7.6 µM IP6, at 37°C, pH 7.4, for different time intervals while stirring continuously. Subsequently, the HAP with adsorbed IP6 was placed in an IP6-free solution and the amount of IP6 released from the surface thereof evaluated at different timepoints.

[6] = In vitro binding kinetics of IP6 to HAP; conditions: 130 mg HAP
Protocol: Experimental: 130 mg HAP was incubated (in triplicate) with 7.6 µM IP6, at 37°C, pH 7.4, for different time intervals while stirring continuously.

cardiovascular function [7] = assay: Cardiovascular function after 2 h intravascular infusion in conscious dogs by telemetry; assay type: in vivo; conditions: for peak IP6 levels: dogs
Protocol: Experimental: 4 male dogs were treated with 3, 10 and 30 mg/kg IP6 by infusion for 2 h in a Latin square design. A washout period of one week was performed between doses. ECGs were measured telemetrically at 1 h and 20 minutes prior to infusion and 5, 15, 30, 45 minutes, 1, 2, 6 and 24 h post-infusion. In a second stage, blood samples were taken for PK, for the same doses, at 20 minutes prior to infusion and 5, 15, 30 minutes and 1, 1.5, 2, 3 and 6 h post-infusion. In this case the washout period between doses was 2 days. Total and free calcium in the blood samples was also measured.

[8] = system: vitamin D-induced cardiovascular calcification in rats; assay: Inhibition of vit D-induced (75,000 IU/kg x 5) cardiovascular calcification by intravenous IP6; assay type: in vivo, male Sprague Dawley (SD) rats
Protocol: Experimental: male Sprague Dawley (SD) rats were divided into 7 groups and IP6 was administered intravenously daily for 14 days at a dose of 0, 0.05, 0.1, 0.5, 1, 5 and 10 mg/kg. Calcification was induced by oral administration of 75,000 IU/kg vitamin D on treatment days 3 to 7. Samples were collected. On day 14 the aortas and hearts of the animals were collected to quantify calcification.

[9] = system: progression of vitamin D-induced vascular calcification; assay: Progression of vitamin D-induced calcification (100,000 IU/kg x 3), rat model for 2 weeks; assay type: in vivo, SD rats; conditions: highest dose (60 mg/kg s.c.), days 5 to 14
Protocol: Experimental: 48 SD rats were treated x3 with vitamin D (s.c. 100,000 IU/kg) to induce tissue calcification. Calcification was allowed to progress for 5 days, and treatment with 0, 10 or 60 mg/kg IP6 s.c. was administered from day 5 until day 14. Calcification of the kidneys and heart was evaluated.

[10] = PK profile of IP6 s.c. in rats with normal and diminished kidney function; assay type: in vivo, Wistar rats
Protocol: Experimental: a single s.c. dose (10 mg/kg) was administered to rats with normal kidney function. Plasma samples were obtained at different timepoints up to 60 minutes. A different group of Wistar rats received oral treatment with adenine 600 mg/kg (p.o.) for 10 days to induce renal impairment. Alpha-calcidol (300 ng/kg) was administered on days 11 and 13 and plasma samples were collected at different timepoints up to 60 minutes on day 14. The plasma IP6 concentrations were quantified for both groups.

[11] = PK profile of IP6 by 4 h intravenous infusion in normal and uraemic rats; assay type: in vivo, Wistar rats
Protocol: Experimental: Wistar rats with normal kidney function were treated daily with a dose of 10 or 50 mg/kg IP6 by intravenous infusion over 4 h. Plasma samples were obtained at different timepoints up to 4 hours on day 0. The animals were then treated orally with 600 mg/kg (p.o.) adenine for 10 days to induce renal impairment. The animals were treated with alpha-calcidol (300 ng/kg) on days 11 and 13 and plasma samples were collected at different timepoints up to 4 hours on day 14. The plasma IP6 levels were quantified for both groups.

[12] = i.v. dose of between 1 and 10 mg/kg daily for 14 days
[13] = normal Wistar rats, single s.c. dose 10 mg/kg
[14] = uraemic rats (adenine), s.c. 10 mg/kg
[15] = uraemic rats, 10 mg/kg i.v. infusion over 4 h
[16] = uraemic rats, 50 mg/kg i.v. infusion over 4 h

O=P(O)(O)O[C@H]1[C@H](OP(=O)(O)O)[C@@H](OP(=O)(O)O)[C@H](OP(=O)(O)O)[C@@H](OP(=O)(O)O)[C@H]1OP(=O)(O)O [IP6, inositol hexaphosphate]
IP6 concentration above which ionic calcium chelation is significant [1]: above 379 µM | IP6 concentration at which chelation saturates [1]: 3788 µM | EC50 ([1]; read-out: EC50 of ionic calcium chelation): 539 µM | calcification inhibition (aorta, heart, remaining kidney) [2]: no evidence of calcification inhibition | loss of IP6 via the dialysis membrane ([3]; administration via the dialysis line for 20 minutes, 1 litre human blood, 37°C): not lost via the dialysis membrane | effect on free calcium in blood ([3]; apparatus in bypass mode): chelates (sequesters) free calcium | effect on ionic calcium levels in blood ([3]; apparatus in dialysis mode): ionic calcium levels are restored | dose above which mild tachycardia and prolonged QTc interval were observed (cardiovascular function [4]; i.v. bolus): above 15 mg/kg | dose above which tachycardia and QTc prolongation become significant (cardiovascular function [4]; i.v. bolus): above 30 mg/kg | effects on ECG parameters or ionic calcium concentrations (cardiovascular function [4]; i.v. bolus 10 mg/kg): no significant effects | decrease in ionic calcium (cardiovascular function [4]; i.v. bolus, correlated with the prolonged QTc interval): 30% | IP6 remaining bound to the HAP surface [5]: 80% | time at which adsorption maximum is reached ([6]; 7.6 µM IP6, 37°C, pH 7.4): 60 min | share of maximum binding achieved ([6]; after 5 minutes, 7.6 µM IP6): Around 80% | peak IP6 levels (cardiovascular function [7]; 3 mg/kg infusion for 2 h): 27 µM | peak IP6 levels (cardiovascular function [7]; 10 mg/kg infusion for 2 h): 150 µM | peak IP6 levels (cardiovascular function [7]; 30 mg/kg infusion for 2 h): 482 µM | mean blood ionic calcium concentrations (cardiovascular function [7]; infusion for 2 h, 3, 10 and 30 mg/kg): unaffected | state of health, weight, cardiorespiratory function, ECG, body temperature and total and free potassium in blood (cardiovascular function [7]; infusion for 2 h, 3, 10 and 30 mg/kg (any dose)): relatively unaffected | effect on the mineral content of the aorta and heart ([8]; i.v. 0.05 to 0.5 mg/kg daily for 14 days): did not affect | reduction of calcification in aorta [8, 12]: up to 60% | reduction of calcification in heart [8, 12]: ≤ 68% | inhibition of the progression of heart calcification [9]: 100% | inhibition of the progression of renal calcification [9]: 95% | duration of measurable levels [10, 13]: at least 30 minutes | peak concentration (plasma IP6) [10, 13]: 7.4 µM | time of peak concentration post-administration [10, 13]: 15 min | peak concentration (plasma IP6) [10, 14]: 1.8 µM | time of peak concentration post-administration [10, 14]: 5 min | concentration at 4 h ([11]; Wistar, rat, plasma, iv, uraemic rats, 10 mg/kg i.v. infusion over 4 h, read-out: plasma concentration after 4 hours): 1.2 µM | peak plasma concentration ([11]; normal rats, 10 mg/kg i.v. infusion over 4 h): 8.4 µM | peak plasma concentration ([11]; normal rats, 50 mg/kg i.v. infusion over 4 h): 68.4 µM | peak concentration [11, 15]: 2.8 µM | time of peak concentration [11, 15]: 30 min | peak plasma concentration [11, 16]: 24.6 µM | time of peak plasma concentration [11, 16]: 4 h | period with approximately constant concentration ([11]; uraemic rats, 50 mg/kg i.v. infusion, from hour 1 to hour 4): 3 h
